According to patent publication US7687536B2, “Aminocycloalkyl cinnamide compounds for arrhythmia and as analgesics and anesthetics” (Cardiome Pharma Corp., priority 1999, dated 2010):

How the values were obtained:
cardiac sodium channel = biological target: T1, cardiac sodium channel (Rattus norvegicus, UniProt P15389); assay: Assessment of sodium channel blockage: electrical stimulation of left ventricle in rats; type: in vivo; conditions: infusion rate required to elicit a 25% increase from control
T1 construct: from tissue; host or cells: heart (left ventricle) of the living rat, in vivo
Procedure: Rats were prepared according to the preceding procedure. Two silver stimulating electrodes were inserted through the chest wall and implanted in the left ventricle. Square wave stimulation was used to determine threshold current for capture, ventricular fibrillation threshold current, and effective refractory period (Howard, P. G. and Walker, M. J. A., Proc. West. Pharmacol. Soc. 33:123-127 (1990)). Table 4 contains ED25 values for these indices of cardiac sodium channel blockage, where the ED25 is the infusion rate in micromol/kg/minute of compound required to elicit a 25% increase from control. The increases in refractoriness indicate ancillary blockage of potassium channels. The threshold current for capture is represented by “It”. The fibrillation threshold current is represented by “VFT”. The effective refracting period is represented by “ERP”.

[1] = system: ECG parameters (P-R, QRS, Q-T interval); assay: Measurement of ECG parameters in pentobarbital anesthetized rats, bolus injections; type: in vivo, rat; conditions: bolus injection
Procedure: Rats weighing 200-250 gms were used in this example. Animals were anesthetized with 60 mg/kg pentobarbital i.p. The carotid artery and jugular vein were cannulated for measurement of blood pressure and drug injection, respectively. ECG was recorded by insertion of electrodes placed along the anatomical axis of the heart. All compounds were given as bolus injections.
Various ECG parameters were measured. Table 3 describes the results of the tests as ED25 (micromol/kg) which are the doses required to produce a 25% increase in the parameter measured (ne=not estimated). The increases in P-R interval and QRS interval indicate cardiac sodium channel blockage while the increase in Q-T interval indicates ancillary cardiac potassium channel blockage which is the property of a type 1a antiarrhythmic.

[2] = system: cardiac arrhythmias in conscious rats subjected to coronary artery occlusion; assay: Antiarrhythmic efficacy: coronary artery occlusion in conscious rats; type: in vivo, rat; conditions: infusion rate which reduces the arrhythmia score to 50% of that of vehicle-treated animals
Procedure: Antiarrhythmic efficacy was assessed by investigating the effect of a compound on the incidence of cardiac arrhythmias in conscious rats subjected to coronary artery occlusion. Rats weighing 200-300 gms were subjected to preparative surgery and assigned to groups in a random block design. In each case, the animal was anesthetized with halothane during surgical preparation. The left femoral artery was cannulated for measurement of mean arterial blood pressure and withdrawal of blood sample. The left femoral vein was also cannulated for injection of drugs. The thoracic cavity was opened and a polyethylene occluder loosely placed around the left anterior descending coronary artery. The thoracic cavity was then closed. ECG was recorded by insertion of electrodes placed along the anatomical axis of the heart. All cannulae and electrode leads were exteriorized in the mid scapular region. […] ECG, arrhythmias, blood pressure, heart rate and mortality were monitored for 30 minutes after occlusion. Arrhythmias were recorded as ventricular tachycardia (VT) and ventricular fibrillation (VF) and scored according to Curtis, M. J. and Walker, M. J. A., Cardiovasc. […]
Occlusion is associated with increases in R-wave height and “S-T” segment elevation; and an occluded zone (measured after death by cardiogreen dye perfusion) in the range of 25%-50% of total left-ventricular weight. […]

[3] = system: sustained AF maintained during continuous vagal nerve stimulation; assay: Canine vagal-AF model; type: in vivo, dog
Procedure: Mongrel dogs of either sex weighing 15-49 kg were anesthetized with morphine (2 mg/kg im initially, followed by 0.5 mg/kg IV every 2 h) and α-chloralose (120 mg/kg IV followed by an infusion of 29.25 mg/kg/h; St.-Georges et al., 1997). Dogs were ventilated mechanically with room air supplemented with oxygen via an endotracheal tube at 20 to 25 breaths/minute with a tidal volume obtained from a nomogram. Arterial blood gases were measured and kept in the physiological range (SAO2>90%, pH 7.30-7.45). Catheters were inserted into the femoral artery for blood pressure recording and blood gas measurement, and into both femoral veins for drug administration and venous sampling. Catheters were kept patent with heparinized 0.9% saline solution. Body temperature was maintained at 37-40° C. with a heating blanket.
The heart was exposed via a medial thoracotomy and a pericardial cradle was created. Three bipolar stainless steel, Teflon™-coated electrodes were inserted into the right atria for recording and stimulation, and one was inserted into the left atrial appendage for recording. A programmable stimulator (Digital Cardiovascular Instruments, Berkeley, Calif.) was used to stimulate the right atrium with 2 ms, twice diastolic threshold pulses. Two stainless steel, Teflon™-coated electrodes were inserted into the left ventricle, one for recording and the other for stimulation. A ventricular demand pacemaker (GBM 5880, Medtronics, Minneapolis, Minn.) was used to stimulate the ventricles at 90 beats/minute when (particular during vagal-AF) the ventricular rate became excessively slow. A P23 ID transducer, electrophysiological amplifier (Bloom Associates, Flying Hills, Pa.) and paper recorder (Astromed MT-95000, Toronto, ON, Canada) were used to record ECG leads II and III, atrial and ventricular electrograms, blood pressure and stimulation artefacts. The vagi were isolated in the neck, doubly-ligated and divided, and electrodes inserted in each nerve (see below). To block changes in β-adrenergic effects on the heart, nadolol was administered as an initial dose of 0.5 mg/kg iv, followed by 0.25 mg/kg IV every two hours.
Drug effects to terminate sustained AF maintained during continuous vagal nerve stimulation were assessed. Unipolar hook electrodes (stainless steel insulated with Teflon™, coated except for the distal 1-2 cm) were inserted via a 21 gauge needle within and parallel to the shaft of each nerve. In most experiments, unipolar stimuli were applied with a stimulator (model DS-9F, Grass Instruments, Quincy, Mass.) set to deliver 0.1 ms square-wave pulses at 10 Hz and a voltage 60% of that required to produce asystole. In some experiments, bipolar stimulation was used. The voltage required to produce asystole ranged between 3-20 volts. Under control conditions, a short burst of rapid atrial pacing (10 Hz, four times diastolic threshold) was delivered to induce AF which was ordinarily sustained for more than 20 minutes. The vagal stimulation voltage was adjusted under control conditions, and then readjusted after each treatment to maintain the same bradycardic effect. AF was defined as rapid (>500 minute under control conditions), irregular atrial rhythm with varying electrogram morphology.
Diastolic threshold current was determined at a basic cycle length of 300 ms by increasing the current 0.1 mA incrementally until stable capture was obtained. For subsequent protocols current was set to twice diastolic threshold. Atrial and ventricular ERP was measured with the extrastimulus method, over a range of S1S2 intervals at a basic cycle length of 300 ms. A premature extrastimulus S2 was introduced every 15 basic stimuli. The S1S2 interval was increased in 5 ms increments until capture occurred, with the longest S1S2 interval consistently failing to produce a propagated response defining ERP. Diastolic threshold and ERP were determined in duplicate and averaged to give a single value. These values were generally within 5 ms. […]

AF = conditions: cited from earlier work

T1 sequence (P15389 whole entry, the tested form may be a part): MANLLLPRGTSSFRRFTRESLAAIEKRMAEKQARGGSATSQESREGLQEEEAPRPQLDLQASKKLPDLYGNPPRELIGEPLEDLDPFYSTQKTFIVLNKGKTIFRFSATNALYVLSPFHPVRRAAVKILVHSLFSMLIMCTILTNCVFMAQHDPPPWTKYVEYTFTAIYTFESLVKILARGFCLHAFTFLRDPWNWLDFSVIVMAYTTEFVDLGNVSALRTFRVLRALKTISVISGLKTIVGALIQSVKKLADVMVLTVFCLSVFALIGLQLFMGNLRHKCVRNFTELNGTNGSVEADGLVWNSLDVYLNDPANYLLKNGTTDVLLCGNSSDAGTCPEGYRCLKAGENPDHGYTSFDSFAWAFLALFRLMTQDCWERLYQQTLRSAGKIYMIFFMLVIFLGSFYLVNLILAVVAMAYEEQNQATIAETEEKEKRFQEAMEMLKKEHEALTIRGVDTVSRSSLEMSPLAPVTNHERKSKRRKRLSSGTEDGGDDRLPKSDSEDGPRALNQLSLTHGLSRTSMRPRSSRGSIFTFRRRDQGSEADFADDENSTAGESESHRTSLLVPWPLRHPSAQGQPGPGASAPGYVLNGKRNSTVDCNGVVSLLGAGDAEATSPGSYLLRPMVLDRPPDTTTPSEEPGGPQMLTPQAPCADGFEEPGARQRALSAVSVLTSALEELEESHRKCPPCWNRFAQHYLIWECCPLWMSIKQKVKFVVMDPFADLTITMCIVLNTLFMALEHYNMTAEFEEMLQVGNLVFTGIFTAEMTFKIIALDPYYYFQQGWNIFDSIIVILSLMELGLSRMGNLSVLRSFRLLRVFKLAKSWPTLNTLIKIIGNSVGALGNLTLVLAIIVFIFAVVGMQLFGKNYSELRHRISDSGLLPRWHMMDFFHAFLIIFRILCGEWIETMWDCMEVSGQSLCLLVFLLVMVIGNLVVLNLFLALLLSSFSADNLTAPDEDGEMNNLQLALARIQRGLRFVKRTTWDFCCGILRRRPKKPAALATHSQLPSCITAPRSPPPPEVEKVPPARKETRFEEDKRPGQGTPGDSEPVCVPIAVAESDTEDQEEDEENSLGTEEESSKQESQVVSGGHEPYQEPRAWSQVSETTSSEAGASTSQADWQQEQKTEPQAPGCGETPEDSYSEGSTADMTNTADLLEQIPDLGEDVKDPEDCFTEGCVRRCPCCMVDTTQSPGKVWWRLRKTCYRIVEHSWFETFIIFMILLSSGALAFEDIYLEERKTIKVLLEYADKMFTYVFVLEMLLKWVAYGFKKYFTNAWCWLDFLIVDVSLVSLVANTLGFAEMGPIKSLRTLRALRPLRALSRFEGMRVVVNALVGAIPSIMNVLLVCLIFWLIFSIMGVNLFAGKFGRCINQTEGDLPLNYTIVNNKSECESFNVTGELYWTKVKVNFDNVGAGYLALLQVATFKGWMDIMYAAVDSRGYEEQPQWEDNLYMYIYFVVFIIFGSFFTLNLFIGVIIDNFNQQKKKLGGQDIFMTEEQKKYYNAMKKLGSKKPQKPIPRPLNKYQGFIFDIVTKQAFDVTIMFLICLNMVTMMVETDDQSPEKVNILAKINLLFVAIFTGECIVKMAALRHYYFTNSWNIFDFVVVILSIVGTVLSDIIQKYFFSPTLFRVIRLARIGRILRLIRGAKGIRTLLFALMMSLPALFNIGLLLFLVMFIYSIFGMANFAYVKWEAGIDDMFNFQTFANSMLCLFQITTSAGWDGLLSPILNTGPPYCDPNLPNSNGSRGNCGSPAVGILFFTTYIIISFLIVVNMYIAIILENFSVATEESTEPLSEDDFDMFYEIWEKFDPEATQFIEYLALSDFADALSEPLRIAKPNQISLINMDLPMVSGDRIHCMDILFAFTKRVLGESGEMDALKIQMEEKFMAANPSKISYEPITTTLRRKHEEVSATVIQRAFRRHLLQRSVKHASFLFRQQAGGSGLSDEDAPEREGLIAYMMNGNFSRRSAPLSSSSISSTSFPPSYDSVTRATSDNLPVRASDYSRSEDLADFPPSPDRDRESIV

For CN(C(=O)C=Cc1ccc(Cl)c(Cl)c1)C1CCCC1N1CCCC1.Cl [Compound 3, (1R,2R)/(1S,2S)≠N-METHYL-N-[2-(1-PYRROLIDINYL)CYCLOPENTYL]3,4-DICHLOROCINNAMIDE MONOHYDROCHLORIDE], the “ED25 ERP (effective refractory period)” value (cardiac sodium channel) was 2 µmol/kg/min, the “ED25 It (threshold current for capture)” value (cardiac sodium channel) was 4 µmol/kg/min and the “ED25 VFT (fibrillation threshold current)” value (cardiac sodium channel) was 12 µmol/kg/min. The “ED25 PR” value ([1]; dose required to produce a 25% increase in P-R interval) was 8 µmol/kg, the “ED25 QT” value ([1]; dose required to produce a 25% increase in Q-T interval) was 5 µmol/kg and the “ED25 QRS” value ([1]; dose required to produce a 25% increase in QRS interval) was 12 µmol/kg. For the same compound, the ED50AA [2] was 2 µmol/kg/min.
For O=C(NCC1CCCCN1)c1cc(OCC(F)(F)F)ccc1OCC(F)(F)F (stereo not shown) [Flecainide], the “Median dose required for termination of AF” value ([3]; IV) was 2.5 µmol/kg, the “effect on blood pressure or heart rate” value ([3]; at the median dose for termination of vagal-AF) was “did not reduce blood pressure or heart rate” and the “prevented induction of AF” value ([3]; dogs in which AF was induced under control conditions during ERP determination with vagal nerve stimulation) was 2/4. For the same compound, the “AF cycle length (AFCL)” value ([3]; during vagal nerve stimulation, prior to termination of AF) was “prolonged AFCL”, the “Mean dose required for termination of AF” value ([3]; mean±SEM, IV) was 4 ± 2 µmol/kg and the “efficacy for terminating AF (dogs terminated/dogs tested)” value ([3]; vagal-AF) was 5/6. For the same compound, the “efficacy for terminating AF (percent of dogs)” value ([3]; vagal-AF) was 80%.
For CCCCCCCN(CC)CCCC(O)c1ccc(NS(C)(=O)=O)cc1 (stereo not shown) [ibutilide], the “patients requiring cardioversion for refractory ventricular arrhythmias” value (AF) is listed as ~1.7% and the “risk of ventricular proarrhythmia” value (AF; patients) is listed as ~4.4%.
